# Source: patent US6900041B2, “Methods and compositions for the treatment of inflammatory diseases” (Reddy US Therapeutics Inc., priority 2000, dated 2005)
# Tests used:
# Format in all cases: cell-based, human
# [1] = tested on: GSK-3β expression; assay: GSK-3β immunoblotting (Western blot, densitometry) of endothelial cells; settings: 24 hours
# Procedure: GSK-3β-immunoblotting analyses of endothelial cells treated with different inflammatory and non-inflammatory agents were performed.
# Cells were treated as taught in Examples 1 and 2. Endothelial cells were incubated with an agent for 24 hours. […] After incubation, the cells were washed, lysed and separated by polyacrylamide gel electrophoresis. Western blotting was performed, using antibody directed to GSK-3β, and detected.
# [2] = tested on: MCP-1 production by endothelial cells; assay: MCP-1 ELISA of endothelial cell media; settings: 24 h
# Procedure: MCP-1 ELISA was carried out using Quantikine Human MCP-1 kit as described by manufacturer (R&D Systems). Mouse anti-human MCP-1 was used as the capture antibody and HRP-conjugated goat anti-human MCP-1 was used as the detection antibody. Culture media were incubated with capture antibody (in 96 well) for 2 h at room temperature. Wells were washed three times with wash buffer (0.05% Tween-20 in PBS followed by incubation with detection antibody for 2 h at room temperature. Color development was read at 450 nm in a microplate reader.
# Endothelial cells, as grown in Example 1 and 2, were transfected with oligonucleotides using Cytofectin transfection reagent. […] IL-6 and MCP-1 were determined by ELISA, as shown in Examples 2 and 3.
# Inhibition of GSK-3β led to […] inflammatory gene expression in endothelial cells. Overexpression of GSK-3β protein inhibited inducible inflammatory gene expression in endothelial cells. Full length GSK-3β cDNA was cloned into a retroviral vector pLIB. Empty vectors or vectors carrying alkaline phosphatase were used as controls. Retroviral particles carrying different genes were generated in HEK-293 cells. […] IL-6 and MCP-1 were determined by ELISA as described in Examples 2 and 3.
# [3] = tested on: VCAM-1 expression; assay: VCAM-1 ELISA on endothelial cell monolayers; settings: 24 h
# Procedure: HMVEC cells were treated with control medium or medium containing 10 ng/ml TNFα or 100 μg/ml glycated-HSA for 24 hrs. All treatments and controls were carried out in serum free media containing 0.2% albumin. Following treatment, cell media were collected and used for IL-6, MCP-1 ELISA and cells were used for VCAM-1 ELISA which was conducted in situ without lysis. Inhibition of GSK-3β altered inflammation-related adhesion molecule expression. VCAM-1 is an endothelial adhesion molecule that facilitates monocyte infiltration into the blood vessel (3). Cells were treated as described in Example 2. Endothelial cells were exposed to KCl (10 mM, as a control) or with TNFα (10 ng/ml); LiCl (10 mM) alone and with TNFα (10 ng/ml), insulin (1 nM) alone or with TNFα (10 ng/ml). Following incubation for 24 h, […] assayed for VCAM-1 by ELISA. VCAM-1 ELISA was performed on monolayers of endothelial cells in 96 well plates. Wells were incubated with 100 μl of 1:1000 dilution of primary antibody (polyclonal goat anti-human VCAM-1 from R&D Systems) in medium containing 10% FBS. A rabbit anti-goat IgG-HRP was used as secondary antibody and ELISA was performed as described for MCP-1 above.
# [4] = tested on: GSK-3β expression; assay: RT-PCR of GSK-3β in endothelial cells; settings: endothelial cells (HMVEC); TNFα 10 ng/ml or AGE 100 μg/ml; 8 hours; vs control
# Procedure: HMVEC cells were treated with control medium or medium containing 10 ng/ml TNFα or 100 μg/ml glycated-HSA for 24 hrs. All treatments and controls were carried out in serum free media containing 0.2% albumin. Cells were collected into cold PBS using a cell scraper and used for RNA isolation.
# Endothelial cells were incubated in media alone (control) or media containing TNFα (10 ng/ml) or AGE (100 μg/ml) for 8 hours. Poly (A) RNA was isolated and used as template for RT-PCR. Poly (A)+RNA was isolated from confluent cultures of HMVEC incubated under various conditions, using the Micropoly (A) pure kit (Ambion). RT-PCR with Superscript First-strand synthesis system (BRL) was performed according to the manufacture's instructions. […] 2: [sequence], representing a 406 bp region (from 519-925) in the coding sequence of GSK-3β (GSK-3β GenBank Accession No. L33801). […] PCR was carried out by using an initial denaturing step at 96° C. for 5 min, then cycle 35-times (or 25 times for quantitative RT-PCR) between 96° C. for 1 min, 58° C. for 45 sec, and 72° C. for 2 min. […] Samples (10 μl) were analyzed on a 1% agarose gel and stained with ethidium bromide and visualized by UV Tran illuminator (UIVP).
# [5] = tested on: IL-6 production by endothelial cells; assay: IL-6 ELISA of endothelial cell media
# Procedure: Human aortic (HAEC) and microvascular (HMVEC) endothelial cells (Clonetics) were cultured and subcultured according to manufacturer in growth medium (Clonetics): basal medium containing hEGF, hydrocortisone, VEGF, HFGF-B (w/heparin), long R3-IGF-1, Ascorbic acid, gentamicin/amphotericin and 5% FBS. These cell were allowed to reach >90% confluency before being subjected to experimental treatments. […] Tumor necrosis factor α was from R&D Systems. Cells were incubated with 20 mM lithium (as LiCl or with 20 mM KCl as control) in the presence or absence of TNFα (10 ng/ml). Insulin (1 nM) was also used to inhibit GSK-3β.
# HMVEC cells were treated with control medium or medium containing 10 ng/ml TNFα or 100 μg/ml glycated-HSA for 24 hrs. All treatments and controls were carried out in serum free media containing 0.2% albumin. […]
# IL-6 ELISA was carried out using human IL-6 DuoSet ELISA development kit as described by manufacturer (R&D Systems). […] Color development was read at 450 nm in a microplate reader. […]
# Following 24 h transfection, the cells were incubated for 24 h with medium alone or medium containing 300 μg/ml glycated albumin (AGE) or medium containing 10 ng/ml TNF-α. IL-6 and MCP-1 were determined by ELISA, as shown in Examples 2 and 3.
# Empty vectors or vectors carrying alkaline phosphatase were used as controls. […] IL-6 and MCP-1 were determined by ELISA as described in Examples 2 and 3.
# [6] = tested on: GSK-3β promoter; assay: GSK-3β promoter-luciferase reporter assay in transfected BAEC; settings: TNFα 10 ng/ml, 24-48 hours
# Procedure: pGL3-GSK3B−1478/+534 was transfected into bovine aortic endothelial cells (BAEC) by electroporation. Transfected cells were aliquoted into 96 well plates and allowed to recover in full media for 16-24 hours. […] Luciferase activity was measured in cell lysates using Bright-Glo Luciferase Assay System (Promega).
substance,measurement,setting,value
VEGF,induction of GSK-3β expression,[1]; VEGF 10 ng/ml,~2 fold
insulin: known inhibitor of GSK-3β,increase of MCP-1,"[2]; added together with AGE 300 μg/ml, LiCl 10 mM or insulin 1 nM",approximately 2.8 fold
same,increase of MCP-1 secretion,"[2]; agent alone (LiCl 10 mM, insulin 1 nM), vs 10 mM KCl (about 400 pg/ml)",about 50%
same,effect on VCAM expression,"[3]; agent alone (LiCl 10 mM, insulin 1 nM)",did not significantly affect
same,effect on TNFα-induced VCAM-1 expression,"[3]; insulin 1 nM together with TNFα 10 ng/ml, vs TNFα alone",almost doubled the effect of TNFα alone
TNFα,intensity of the 406 bp GSK-3β RT-PCR band,[4],decreased
same,increase in IL-6 secretion,"[5]; TNFα 10 ng/ml alone, 24 h",greater than 10 fold
same,induction of IL-6 expression,[5]; endothelial cells transduced with control vector,10 fold
same,"VCAM-1 expression, % of basal levels",[3]; TNFα 10 ng/ml alone,340%
same,decrease of GSK-3β expression,"[1]; TNF-α 10 ng/ml, AGE 300 μg/ml, oxidized LDL 100 μg/ml, IL-1β 1 ng/ml",70%
same,decrease of GSK-3β promoter activity (luciferase),[6],greater than 50%
